According to patent US20260176320A1, “MODULATORS OF G-PROTEIN COUPLED RECEPTORS” (priority 2018, published 2026):
Read-outs that look alike come from different tables or passages of the source.

Legend:
Assay type in all cases: cell-based
[1] = biological target: T1, GLP-1R (Homo sapiens, UniProt P43220); assay: PathHunter β-arrestin assay
Method in brief: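 Recruitment of β-arrestin is measured by luminescence after cells, plated overnight, receive serially diluted agonist for 90 min at 37 °C in medium with 0.2% BSA. Detection reagent then develops for 3 h at room temperature, protected from light.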

[2] = biological target: T2, GIP-R (Homo sapiens, UniProt P48546); assay: HitHunter cAMP assay (GIP-R); conditions: for Emax: read-out: (Emax) GIP-R
T2 sequence (P48546 22-466): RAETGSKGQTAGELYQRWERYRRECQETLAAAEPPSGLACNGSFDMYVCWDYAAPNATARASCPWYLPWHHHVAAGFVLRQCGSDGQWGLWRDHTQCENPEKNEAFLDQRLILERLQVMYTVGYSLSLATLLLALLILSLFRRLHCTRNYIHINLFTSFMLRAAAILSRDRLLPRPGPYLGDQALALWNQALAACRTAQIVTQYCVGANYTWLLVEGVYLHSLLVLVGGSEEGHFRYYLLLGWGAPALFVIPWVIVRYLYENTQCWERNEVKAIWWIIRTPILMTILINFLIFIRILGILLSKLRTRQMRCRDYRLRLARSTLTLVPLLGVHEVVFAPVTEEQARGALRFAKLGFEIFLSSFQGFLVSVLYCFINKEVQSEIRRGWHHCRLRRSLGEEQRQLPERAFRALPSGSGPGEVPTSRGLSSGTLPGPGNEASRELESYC
Method in brief: (§1)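 Agonist stimulation lasts 30 min at room temperature on 10,000 cells per well, with phosphodiesterase blocked by 625 μM IBMX. Accumulated cAMP is quantified by competitive antibody luminescence after overnight development.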

[3] = biological target: T1, GLP-1R; assay: HitHunter cAMP assay (GLP-1R); conditions: for Emax: read-out: (Emax) GLP-1R
Method in brief: as §1

[4] = PathHunter β-arrestin assay, read-out: β-arrestin activity EC50
[5] = Table 3A, cAMP, read-out: EC50 GIP-R/nM
[6] = Table 3A, cAMP, read-out: EC50 GLP-1R/nM

T1 sequence (P43220 24-463): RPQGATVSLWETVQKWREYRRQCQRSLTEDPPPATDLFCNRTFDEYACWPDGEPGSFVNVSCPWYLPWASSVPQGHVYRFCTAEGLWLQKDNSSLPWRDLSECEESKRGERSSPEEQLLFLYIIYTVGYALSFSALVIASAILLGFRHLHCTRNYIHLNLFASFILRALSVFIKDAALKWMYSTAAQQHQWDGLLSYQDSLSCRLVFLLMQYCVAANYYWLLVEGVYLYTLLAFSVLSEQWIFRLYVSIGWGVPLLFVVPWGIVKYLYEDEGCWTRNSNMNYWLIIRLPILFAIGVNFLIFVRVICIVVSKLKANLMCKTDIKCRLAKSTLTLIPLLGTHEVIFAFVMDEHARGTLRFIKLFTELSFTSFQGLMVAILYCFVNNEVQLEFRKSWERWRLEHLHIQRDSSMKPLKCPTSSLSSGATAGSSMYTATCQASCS

Compound	EC50 [1] [nM]	EC50 ([2]; EC50 GIP-R/nM, Table 3, cAMP) [nM]	EC50 ([2]; EC50 GIP-R/nM, Table 3A, cAMP) [nM]	Emax ([2]; Table 3, cAMP) [%]	Emax ([2]; Table 3A, cAMP) [%]	EC50 ([3]; EC50 GLP-1R/nM, Table 3, cAMP) [nM]	EC50 ([3]; EC50 GLP-1R/nM, Table 3A, cAMP) [nM]	Emax ([3]; Table 3, cAMP) [%]	Emax ([3]; Table 3A, cAMP) [%]	EC50 [1, 4] [nM]	EC50 ([2]; Table 3, cAMP, read-out: EC50 GIP-R/nM) [nM]	EC50 [2, 5] [nM]	EC50 ([3]; Table 3, cAMP, read-out: EC50 GLP-1R/nM) [nM]	EC50 [3, 6] [nM]	Emax [2] [%]	EC50 [3] [nM]	Emax [3] [%]	EC50 ([3]; read-out: EC50 GLP-1R/nM, Table 3A, cAMP) [nM]
CCCCCCCCCCCCCCCC(=O)N[C@@H](CCC(=O)NCCCC[C@H](NC(=O)[C@H](CO)NC(=O)[C@@H]1CCCN1C(=O)[C@@H]1CCCN1C(=O)[C@@H]1CCCN1C(=O)[C@H](C)NC(=O)CNC(=O)[C@H](CO)NC(=O)[C@H](CO)NC(=O)[C@@H]1CCCN1C(=O)CNC(=O)CNC(=O)[C@H](C)NC(=O)[C@H](CC(C)C)NC(=O)[C@H](CC(C)C)NC(=O)[C@H](Cc1c[nH]c2ccccc12)NC(=O)[C@H](CC(N)=O)NC(=O)[C@@H](NC(=O)[C@H](Cc1ccccc1)NC(=O)[C@H](CCC(=O)O)NC(=O)C(C)(C)NC(=O)[C@H](C)NC(=O)[C@H](C)NC(=O)[C@H](CCC(N)=O)NC(=O)[C@H](CCCCN)NC(=O)[C@H](CC(=O)O)NC(=O)[C@H](CC(C)C)NC(=O)[C@H](Cc1ccc(O)cc1)NC(=O)[C@@H](NC(=O)[C@H](CO)NC(=O)[C@H](Cc1ccc(O)cc1)NC(=O)[C@H](CC(=O)O)NC(=O)[C@H](CO)NC(=O)[C@@H](NC(=O)[C@H](Cc1ccccc1)NC(=O)[C@@H](NC(=O)CNC(=O)[C@H](CCC(=O)O)NC(=O)CSCC(=O)NCCN1C(=O)c2ccccc2C1=O)[C@@H](C)O)[C@@H](C)O)[C@@H](C)CC)C(C)C)C(N)=O)C(=O)O [Compound 173]	> 1000	0.1 to 1	0.1 to 1	92 to 111	92 to 111	1 to 10	1 to 10	90 to 105	90 to 105	–	–	–	–	–	–	–	–	–
CC[C@H](C)[C@H](NC(=O)[C@H](CO)NC(=O)[C@H](Cc1ccc(O)cc1)NC(=O)[C@H](CC(=O)O)NC(=O)[C@H](CO)NC(=O)[C@@H](NC(=O)[C@H](Cc1ccccc1)NC(=O)[C@@H](NC(=O)CNC(=O)[C@H](CCC(=O)O)NC(=O)CCCNC(=O)CCN1C(=O)c2ccccc2C1=O)[C@@H](C)O)[C@@H](C)O)C(=O)N[C@@H](Cc1ccc(O)cc1)C(=O)N[C@@H](CC(C)C)C(=O)N[C@@H](CC(=O)O)C(=O)N[C@@H](CCCCN)C(=O)N[C@@H](CCC(N)=O)C(=O)N[C@@H](C)C(=O)N[C@@H](C)C(=O)NC(C)(C)C(=O)N[C@@H](CCC(=O)O)C(=O)N[C@@H](Cc1ccccc1)C(=O)N[C@H](C(=O)N[C@@H](CC(N)=O)C(=O)N[C@@H](Cc1c[nH]c2ccccc12)C(=O)N[C@@H](CC(C)C)C(=O)N[C@@H](CC(C)C)C(=O)N[C@@H](C)C(=O)NCC(=O)NCC(=O)N1CCC[C@H]1C(=O)N[C@@H](CO)C(=O)N[C@@H](CO)C(=O)NCC(=O)N[C@@H](C)C(=O)N1CCC[C@H]1C(=O)N1CCC[C@H]1C(=O)N1CCC[C@H]1C(=O)N[C@@H](CO)C(=O)N[C@@H](CCCCN)C(N)=O)C(C)C [Compound 154]	–	–	–	78	78	–	–	80	80	> 1000	1 to 10	1 to 10	1 to 10	1 to 10	–	–	–	–
CCCCCCCCCCCCCCCC(=O)N[C@@H](CCC(=O)NCCCC[C@H](NC(=O)[C@H](CO)NC(=O)[C@@H]1CCCN1C(=O)[C@@H]1CCCN1C(=O)[C@@H]1CCCN1C(=O)[C@H](C)NC(=O)CNC(=O)[C@H](CO)NC(=O)[C@H](CO)NC(=O)[C@@H]1CCCN1C(=O)CNC(=O)CNC(=O)[C@H](C)NC(=O)[C@H](CC(C)C)NC(=O)[C@H](CC(C)C)NC(=O)[C@H](Cc1c[nH]c2ccccc12)NC(=O)[C@H](CC(N)=O)NC(=O)[C@@H](NC(=O)[C@H](Cc1ccccc1)NC(=O)[C@H](CCC(=O)O)NC(=O)C(C)(C)NC(=O)[C@H](C)NC(=O)[C@H](C)NC(=O)[C@H](CCC(N)=O)NC(=O)[C@H](CCCCN)NC(=O)[C@H](CC(=O)O)NC(=O)[C@H](CC(C)C)NC(=O)[C@H](Cc1ccc(O)cc1)NC(=O)[C@@H](NC(=O)[C@H](CO)NC(=O)[C@H](Cc1ccc(O)cc1)NC(=O)[C@H](CC(=O)O)NC(=O)[C@H](CO)NC(=O)[C@@H](NC(=O)[C@H](Cc1ccccc1)NC(=O)[C@@H](NC(=O)CNC(=O)[C@H](CCC(=O)O)NC(=O)CCCCC(=O)NCCN1CCCCC1=O)[C@@H](C)O)[C@@H](C)O)[C@@H](C)CC)C(C)C)C(N)=O)C(=O)O [Compound 20]	> 1000	1 to 10	10 to 100	–	–	–	–	–	–	–	–	–	–	–	22	0.1 to 1	91	0.1 to 1
CCCCCCCCCCCCCCCC(=O)N[C@@H](CCC(=O)NCCCC[C@H](NC(=O)[C@H](CO)NC(=O)[C@@H]1CCCN1C(=O)[C@@H]1CCCN1C(=O)[C@@H]1CCCN1C(=O)[C@H](C)NC(=O)CNC(=O)[C@H](CO)NC(=O)[C@H](CO)NC(=O)[C@@H]1CCCN1C(=O)CNC(=O)CNC(=O)[C@H](C)NC(=O)[C@H](CC(C)C)NC(=O)[C@H](CC(C)C)NC(=O)[C@H](Cc1c[nH]c2ccccc12)NC(=O)[C@H](CC(N)=O)NC(=O)[C@@H](NC(=O)[C@H](Cc1ccccc1)NC(=O)[C@H](CCC(=O)O)NC(=O)C(C)(C)NC(=O)[C@H](C)NC(=O)[C@H](C)NC(=O)[C@H](CCC(N)=O)NC(=O)[C@H](CCCCN)NC(=O)[C@H](CC(=O)O)NC(=O)[C@H](CC(C)C)NC(=O)[C@H](Cc1ccc(O)cc1)NC(=O)[C@@H](NC(=O)[C@H](CO)NC(=O)[C@H](Cc1ccc(O)cc1)NC(=O)[C@H](CC(=O)O)NC(=O)[C@H](CO)NC(=O)[C@@H](NC(=O)[C@H](Cc1ccccc1)NC(=O)[C@@H](NC(=O)CNC(=O)[C@H](CCC(=O)O)NC(=O)CSCC(=O)NCCN1C(=O)CC[C@H](C)C1=O)[C@@H](C)O)[C@@H](C)O)[C@@H](C)CC)C(C)C)C(N)=O)C(=O)O [Compound 92]	> 1000	0.1 to 1	0.1 to 1	85 to 88	85 to 88	1 to 10	1 to 10	94 to 104	94 to 104	–	–	–	–	–	–	–	–	–
CC[C@H](C)[C@H](NC(=O)[C@H](CO)NC(=O)[C@H](Cc1ccc(O)cc1)NC(=O)[C@H](CC(=O)O)NC(=O)[C@H](CO)NC(=O)[C@@H](NC(=O)[C@H](Cc1ccccc1)NC(=O)[C@@H](NC(=O)CNC(=O)[C@H](CCC(=O)O)NC(=O)CSCC(=O)NCCn1ncc2ccccc2c1=O)[C@@H](C)O)[C@@H](C)O)C(=O)N[C@@H](Cc1ccc(O)cc1)C(=O)N[C@@H](CC(C)C)C(=O)N[C@@H](CC(=O)O)C(=O)N[C@@H](CCCCN)C(=O)N[C@@H](CCC(N)=O)C(=O)N[C@@H](C)C(=O)N[C@@H](C)C(=O)NC(C)(C)C(=O)N[C@@H](CCC(=O)O)C(=O)N[C@@H](Cc1ccccc1)C(=O)N[C@H](C(=O)N[C@@H](CC(N)=O)C(=O)N[C@@H](Cc1c[nH]c2ccccc12)C(=O)N[C@@H](CC(C)C)C(=O)N[C@@H](CC(C)C)C(=O)N[C@@H](C)C(=O)NCC(=O)NCC(=O)N1CCC[C@H]1C(=O)N[C@@H](CO)C(=O)N[C@@H](CO)C(=O)NCC(=O)N[C@@H](C)C(=O)N1CCC[C@H]1C(=O)N1CCC[C@H]1C(=O)N1CCC[C@H]1C(=O)N[C@@H](CO)C(=O)N[C@@H](CCCCN)C(N)=O)C(C)C [Compound 136]	> 1000	0.1 to 1	0.1 to 1	105	105	10 to 100	10 to 100	91 to 94	91 to 94	–	–	–	–	–	–	–	–	–
CCCCCCCCCCCCCCCC(=O)N[C@@H](CCC(=O)NCCCC[C@H](NC(=O)[C@H](CO)NC(=O)[C@@H]1CCCN1C(=O)[C@@H]1CCCN1C(=O)[C@@H]1CCCN1C(=O)[C@H](C)NC(=O)CNC(=O)[C@H](CO)NC(=O)[C@H](CO)NC(=O)[C@@H]1CCCN1C(=O)CNC(=O)CNC(=O)[C@H](C)NC(=O)[C@H](CC(C)C)NC(=O)[C@H](CC(C)C)NC(=O)[C@H](Cc1c[nH]c2ccccc12)NC(=O)[C@H](CC(N)=O)NC(=O)[C@@H](NC(=O)[C@H](Cc1ccccc1)NC(=O)[C@H](CCC(=O)O)NC(=O)C(C)(C)NC(=O)[C@H](C)NC(=O)[C@H](C)NC(=O)[C@H](CCC(N)=O)NC(=O)[C@H](CCCCN)NC(=O)[C@H](CC(=O)O)NC(=O)[C@H](CC(C)C)NC(=O)[C@](C)(Cc1ccc(O)cc1)NC(=O)[C@@H](NC(=O)[C@H](CO)NC(=O)[C@H](Cc1ccc(O)cc1)NC(=O)[C@H](CC(=O)O)NC(=O)[C@H](CO)NC(=O)[C@@H](NC(=O)[C@H](Cc1ccccc1)NC(=O)[C@@H](NC(=O)CNC(=O)[C@H](CCC(=O)O)NC(=O)CSCC(=O)NCCN1CCCCC1=O)[C@@H](C)O)[C@@H](C)O)[C@@H](C)CC)C(C)C)C(N)=O)C(=O)O [Compound 225]	–	–	–	–	70 to 80	–	–	–	–	> 1000	–	1 to 10	–	0.1 to 1	–	–	–	–
